Legend:
Assay in all cases: radiometric filter-binding kinase assay, Kinase HotSpot
Conditions in all cases: compound 0.5 µM; ATP 10 µM
[1] = biological target: ACVRL1 (human) (UniProt P37023)
[2] = biological target: CAMK2B (human) (UniProt Q13554)
[3] = biological target: CAMKK2 (human) (UniProt Q96RR4)
[4] = biological target: CHUK (human) (UniProt O15111)
[5] = biological target: CSNK1E (human) (UniProt P49674)
[6] = biological target: CSNK1G1 (human) (UniProt Q9HCP0)
[7] = biological target: DAPK3 (human) (UniProt O43293)
[8] = biological target: EGFR (human) (UniProt P00533)
[9] = biological target: EPHA2 (human) (UniProt P29317)
[10] = biological target: EPHB2 (human) (UniProt P29323)
Chain of EPHB2 (human) (P29323 whole entry, looked up): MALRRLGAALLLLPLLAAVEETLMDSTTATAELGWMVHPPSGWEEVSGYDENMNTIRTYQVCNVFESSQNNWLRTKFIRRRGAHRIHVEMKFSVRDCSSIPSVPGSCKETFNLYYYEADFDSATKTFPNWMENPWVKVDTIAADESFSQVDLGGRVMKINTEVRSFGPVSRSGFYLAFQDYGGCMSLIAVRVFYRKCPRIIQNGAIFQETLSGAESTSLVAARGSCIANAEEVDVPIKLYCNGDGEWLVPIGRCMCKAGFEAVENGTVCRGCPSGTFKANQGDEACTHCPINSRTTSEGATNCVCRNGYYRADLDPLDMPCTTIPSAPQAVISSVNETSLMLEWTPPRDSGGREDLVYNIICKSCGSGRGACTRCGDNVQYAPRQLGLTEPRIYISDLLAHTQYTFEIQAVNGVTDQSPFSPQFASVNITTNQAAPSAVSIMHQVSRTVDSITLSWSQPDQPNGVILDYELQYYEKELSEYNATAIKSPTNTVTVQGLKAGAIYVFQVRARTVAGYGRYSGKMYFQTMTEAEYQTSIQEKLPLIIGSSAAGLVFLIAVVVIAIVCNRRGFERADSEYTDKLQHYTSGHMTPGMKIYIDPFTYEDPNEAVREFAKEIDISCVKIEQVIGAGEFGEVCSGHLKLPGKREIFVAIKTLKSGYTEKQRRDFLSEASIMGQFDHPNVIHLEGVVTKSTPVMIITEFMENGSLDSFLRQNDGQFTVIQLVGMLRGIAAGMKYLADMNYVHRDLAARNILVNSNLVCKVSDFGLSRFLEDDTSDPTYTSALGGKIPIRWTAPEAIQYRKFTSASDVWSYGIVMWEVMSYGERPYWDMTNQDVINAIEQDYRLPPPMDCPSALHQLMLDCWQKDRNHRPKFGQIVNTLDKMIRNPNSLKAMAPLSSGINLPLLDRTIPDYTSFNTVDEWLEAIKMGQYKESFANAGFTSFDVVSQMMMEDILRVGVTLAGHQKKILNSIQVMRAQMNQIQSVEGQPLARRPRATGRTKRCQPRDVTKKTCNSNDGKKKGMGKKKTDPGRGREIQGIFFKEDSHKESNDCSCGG

[11] = biological target: ERBB2 (human) (UniProt P04626)
[12] = biological target: FER (human) (UniProt P16591)
[13] = biological target: GRK6 (human) (UniProt P43250)
[14] = biological target: GSK3A (human) (UniProt P49840)
[15] = biological target: INSRR (human) (UniProt P14616)
[16] = biological target: IRAK1 (human) (UniProt P51617)
[17] = test system: MAP2K6 (human), P52564 [S207E/T211E]
[18] = biological target: MAP3K2 (human) (UniProt Q9Y2U5)
Chain of MAP3K2 (human) (Q9Y2U5 whole entry, looked up): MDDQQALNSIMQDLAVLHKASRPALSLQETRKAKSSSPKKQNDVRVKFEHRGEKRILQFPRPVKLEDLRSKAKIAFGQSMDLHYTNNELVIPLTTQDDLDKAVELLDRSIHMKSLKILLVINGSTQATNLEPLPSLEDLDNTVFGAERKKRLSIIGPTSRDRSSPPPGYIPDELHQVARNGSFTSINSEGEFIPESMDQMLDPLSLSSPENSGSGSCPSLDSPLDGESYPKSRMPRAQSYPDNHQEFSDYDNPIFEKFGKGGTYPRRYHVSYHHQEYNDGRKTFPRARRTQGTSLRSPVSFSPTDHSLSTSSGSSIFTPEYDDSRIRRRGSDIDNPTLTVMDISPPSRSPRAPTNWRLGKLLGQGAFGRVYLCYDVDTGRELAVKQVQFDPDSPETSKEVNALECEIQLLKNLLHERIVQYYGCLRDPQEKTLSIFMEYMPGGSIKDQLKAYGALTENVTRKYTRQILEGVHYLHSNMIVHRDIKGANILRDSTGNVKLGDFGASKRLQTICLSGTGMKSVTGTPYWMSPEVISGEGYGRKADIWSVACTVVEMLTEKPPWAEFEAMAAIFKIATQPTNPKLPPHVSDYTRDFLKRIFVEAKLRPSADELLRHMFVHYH

[19] = biological target: MAP3K7 TAB1 (human) (UniProt O43318+Q15750)
[20] = biological target: MAPK13 (human) (UniProt O15264)
Chain of MAPK13 (human) (O15264 whole entry, looked up): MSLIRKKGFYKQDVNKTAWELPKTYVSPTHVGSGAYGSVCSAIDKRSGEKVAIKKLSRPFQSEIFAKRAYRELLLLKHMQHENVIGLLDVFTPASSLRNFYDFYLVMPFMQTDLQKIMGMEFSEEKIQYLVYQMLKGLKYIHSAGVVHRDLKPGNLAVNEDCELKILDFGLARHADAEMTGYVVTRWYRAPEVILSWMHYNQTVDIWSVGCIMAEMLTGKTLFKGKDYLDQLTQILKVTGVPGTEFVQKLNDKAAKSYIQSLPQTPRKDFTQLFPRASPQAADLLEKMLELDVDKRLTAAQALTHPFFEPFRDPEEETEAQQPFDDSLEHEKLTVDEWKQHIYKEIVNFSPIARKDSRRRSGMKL

[21] = biological target: MERTK (human) (UniProt Q12866)
[22] = biological target: MLTK (human) (UniProt Q9NYL2)
Chain of MLTK (human) (Q9NYL2 whole entry, looked up): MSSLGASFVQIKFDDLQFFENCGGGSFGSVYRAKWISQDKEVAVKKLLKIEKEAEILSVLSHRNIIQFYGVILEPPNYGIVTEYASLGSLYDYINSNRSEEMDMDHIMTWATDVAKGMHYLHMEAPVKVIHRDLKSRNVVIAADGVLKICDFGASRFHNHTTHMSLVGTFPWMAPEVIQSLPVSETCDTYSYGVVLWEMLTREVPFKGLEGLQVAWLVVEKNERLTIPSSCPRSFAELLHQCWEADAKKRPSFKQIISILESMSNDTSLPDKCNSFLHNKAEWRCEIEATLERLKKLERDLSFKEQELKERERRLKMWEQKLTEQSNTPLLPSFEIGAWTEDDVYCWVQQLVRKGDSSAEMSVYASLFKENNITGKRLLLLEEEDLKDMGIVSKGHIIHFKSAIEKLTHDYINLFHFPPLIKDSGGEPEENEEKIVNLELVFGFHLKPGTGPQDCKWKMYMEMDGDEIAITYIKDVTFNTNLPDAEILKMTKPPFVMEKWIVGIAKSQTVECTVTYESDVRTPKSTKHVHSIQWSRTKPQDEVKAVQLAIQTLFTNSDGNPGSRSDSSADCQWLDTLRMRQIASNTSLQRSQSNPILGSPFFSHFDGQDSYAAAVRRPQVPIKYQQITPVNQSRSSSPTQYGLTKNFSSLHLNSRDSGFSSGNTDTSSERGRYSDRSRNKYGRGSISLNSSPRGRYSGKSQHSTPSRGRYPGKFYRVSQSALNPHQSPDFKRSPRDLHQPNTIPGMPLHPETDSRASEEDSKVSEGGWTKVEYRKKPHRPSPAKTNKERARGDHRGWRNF

[23] = biological target: MYLK2 (human) (UniProt Q9H1R3)
[24] = biological target: NEK1 (human) (UniProt Q96PY6)
[25] = biological target: NLK (human) (UniProt Q9UBE8)
[26] = biological target: NTRK1 (human) (UniProt P04629)
[27] = biological target: PAK3 (human) (UniProt O75914)
[28] = biological target: PAK6 (human) (UniProt Q9NQU5)
[29] = biological target: PDGFRB (human) (UniProt P09619)
[30] = biological target: PLK3 (human) (UniProt Q9H4B4)
[31] = biological target: PRKCG (human) (UniProt P05129)
[32] = biological target: PRKD2 (human) (UniProt Q9BZL6)
[33] = biological target: PTK2 (human) (UniProt Q05397)
[34] = biological target: PTK2B (human) (UniProt Q14289)
[35] = biological target: RPS6KA6 KD1 KD2 (human) (UniProt Q9UK32)
Chain of RPS6KA6 KD1 KD2 (human) (Q9UK32 whole entry, looked up): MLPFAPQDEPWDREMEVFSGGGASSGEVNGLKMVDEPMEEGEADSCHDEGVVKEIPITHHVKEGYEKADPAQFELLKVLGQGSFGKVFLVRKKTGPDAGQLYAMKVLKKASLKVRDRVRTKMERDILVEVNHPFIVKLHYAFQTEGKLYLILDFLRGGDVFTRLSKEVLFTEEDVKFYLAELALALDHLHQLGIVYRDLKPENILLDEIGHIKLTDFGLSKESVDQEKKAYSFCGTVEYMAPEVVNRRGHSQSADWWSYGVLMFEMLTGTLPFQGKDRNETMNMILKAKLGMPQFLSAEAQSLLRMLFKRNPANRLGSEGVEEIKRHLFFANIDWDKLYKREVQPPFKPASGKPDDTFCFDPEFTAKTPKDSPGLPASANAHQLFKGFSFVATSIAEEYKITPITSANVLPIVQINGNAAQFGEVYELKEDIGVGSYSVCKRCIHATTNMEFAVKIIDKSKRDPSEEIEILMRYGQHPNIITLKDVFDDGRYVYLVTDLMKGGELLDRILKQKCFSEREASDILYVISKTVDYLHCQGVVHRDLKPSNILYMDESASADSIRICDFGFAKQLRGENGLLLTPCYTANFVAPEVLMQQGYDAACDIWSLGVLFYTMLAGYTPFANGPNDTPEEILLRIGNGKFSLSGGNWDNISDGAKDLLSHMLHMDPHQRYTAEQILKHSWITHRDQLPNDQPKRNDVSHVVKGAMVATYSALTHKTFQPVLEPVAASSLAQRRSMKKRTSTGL

[36] = biological target: SRPK1 (human) (UniProt Q96SB4)
Chain of SRPK1 (human) (Q96SB4 whole entry, looked up): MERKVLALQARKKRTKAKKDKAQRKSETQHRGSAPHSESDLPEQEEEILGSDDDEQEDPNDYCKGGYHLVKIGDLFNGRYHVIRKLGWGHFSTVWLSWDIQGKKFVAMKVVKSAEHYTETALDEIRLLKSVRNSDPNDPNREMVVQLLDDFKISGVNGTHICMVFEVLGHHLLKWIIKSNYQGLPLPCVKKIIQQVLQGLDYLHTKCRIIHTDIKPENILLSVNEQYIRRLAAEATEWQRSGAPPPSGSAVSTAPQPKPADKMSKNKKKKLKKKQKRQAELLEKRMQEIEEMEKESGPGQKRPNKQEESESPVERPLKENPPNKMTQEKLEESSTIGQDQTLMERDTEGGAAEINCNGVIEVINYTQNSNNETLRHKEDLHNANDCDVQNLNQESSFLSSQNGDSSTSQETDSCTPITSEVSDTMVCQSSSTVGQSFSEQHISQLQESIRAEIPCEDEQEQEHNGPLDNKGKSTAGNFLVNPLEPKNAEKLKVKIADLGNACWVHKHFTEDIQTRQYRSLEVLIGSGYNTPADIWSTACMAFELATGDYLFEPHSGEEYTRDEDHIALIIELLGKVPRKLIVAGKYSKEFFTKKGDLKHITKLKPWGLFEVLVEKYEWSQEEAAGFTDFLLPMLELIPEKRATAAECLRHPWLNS

[37] = biological target: SRPK3 (human) (UniProt Q9UPE1)
[38] = biological target: STK25 (human) (UniProt O00506)
[39] = biological target: STK33 (human) (UniProt Q9BYT3)
[40] = biological target: STK4 (human) (UniProt Q13043)
[41] = biological target: TSSK1B (human) (UniProt Q9BXA7)
[42] = biological target: RPS6KA4 KD2 (human) (UniProt O75676)

Chain of CAMKK2 (human) (Q96RR4 whole entry, looked up): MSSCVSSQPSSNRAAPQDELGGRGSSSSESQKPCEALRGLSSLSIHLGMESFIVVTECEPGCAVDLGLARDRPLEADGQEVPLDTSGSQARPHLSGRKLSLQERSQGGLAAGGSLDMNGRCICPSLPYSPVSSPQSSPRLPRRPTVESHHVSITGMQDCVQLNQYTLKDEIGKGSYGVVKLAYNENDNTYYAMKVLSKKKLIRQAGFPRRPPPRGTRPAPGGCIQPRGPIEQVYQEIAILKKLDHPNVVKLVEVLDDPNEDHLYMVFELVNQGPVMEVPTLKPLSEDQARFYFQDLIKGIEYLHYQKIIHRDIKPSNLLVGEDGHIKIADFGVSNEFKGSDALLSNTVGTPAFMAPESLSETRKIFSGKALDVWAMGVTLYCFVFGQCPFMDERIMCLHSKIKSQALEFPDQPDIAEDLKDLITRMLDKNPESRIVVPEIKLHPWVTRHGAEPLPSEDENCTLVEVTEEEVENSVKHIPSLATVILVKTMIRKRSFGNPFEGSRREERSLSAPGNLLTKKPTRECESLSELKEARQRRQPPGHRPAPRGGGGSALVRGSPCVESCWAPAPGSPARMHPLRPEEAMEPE

Cc1cccc(-c2nc(C(C)(C)C)[nH]c2-c2ccc3c(c2)OCO3)n1
residual activity [1]: 127%
residual activity [2]: 96.2%
residual activity [3]: 96%
residual activity [4]: 108%
residual activity [5]: 71.5%
residual activity [6]: 79.4%
residual activity [7]: 97%
residual activity [8]: 96.4%
residual activity [9]: 99.2%
residual activity [10]: 93%
residual activity [11]: 102%
residual activity [12]: 85.4%
residual activity [13]: 101%
residual activity [14]: 93%
residual activity [15]: 95.1%
residual activity [16]: 118%
residual activity [17]: 105%
residual activity [18]: 99.9%
residual activity [19]: 96.3%
residual activity [20]: 107%
residual activity [21]: 82%
residual activity [22]: 97.8%
residual activity [23]: 99.2%
residual activity [24]: 78.9%
residual activity [25]: 87.9%
residual activity [26]: 96.5%
residual activity [27]: 95.9%
residual activity [28]: 103%
residual activity [29]: 106%
residual activity [30]: 95.6%
residual activity [31]: 107%
residual activity [32]: 93.6%
residual activity [33]: 98.1%
residual activity [34]: 91.3%
residual activity [35]: 107%
residual activity [36]: 96.5%
residual activity [37]: 95.1%
residual activity [38]: 104%
residual activity [39]: 89%
residual activity [40]: 98.7%
residual activity [41]: 103%

COc1ccc(Cl)cc1NC(=O)Nc1cc(C)nc2ccccc12
residual activity [1]: 98.6%
residual activity [2]: 103%
residual activity [3]: 93.2%
residual activity [4]: 100%
residual activity [5]: 86.4%
residual activity [6]: 97.9%
residual activity [7]: 100%
residual activity [8]: 98%
residual activity [9]: 100%
residual activity [10]: 93.2%
residual activity [11]: 99.7%
residual activity [12]: 92.4%
residual activity [13]: 105%
residual activity [14]: 124%
residual activity [15]: 100%
residual activity [16]: 91.2%
residual activity [17]: 89.9%
residual activity [18]: 98%
residual activity [19]: 101%
residual activity [20]: 108%
residual activity [21]: 93.3%
residual activity [22]: 99.7%
residual activity [23]: 99.3%
residual activity [24]: 96.3%
residual activity [25]: 94.5%
residual activity [26]: 92.5%
residual activity [27]: 98.9%
residual activity [28]: 96.5%
residual activity [29]: 105%
residual activity [30]: 100%
residual activity [31]: 107%
residual activity [32]: 99.8%
residual activity [33]: 97.3%
residual activity [34]: 88.9%
residual activity [42]: 94%
residual activity [36]: 82.5%
residual activity [37]: 104%
residual activity [38]: 101%
residual activity [39]: 103%
residual activity [40]: 98.7%
residual activity [41]: 94.6%

O=C1Nc2ccc(Br)cc2/C1=C\c1cc2c([nH]1)CCCC2
residual activity [1]: 103%
residual activity [2]: 85.8%
residual activity [3]: 68.1%
residual activity [4]: 99.1%
residual activity [5]: 84.3%
residual activity [6]: 102%
residual activity [7]: 92.8%
residual activity [8]: 87.4%
residual activity [9]: 110%
residual activity [10]: 85.4%
residual activity [11]: 115%
residual activity [12]: 74.7%
residual activity [13]: 95.8%
residual activity [14]: 88.5%
residual activity [15]: 94.8%
residual activity [16]: 97%
residual activity [17]: 110%
residual activity [18]: 93.6%
residual activity [19]: 60.9%
residual activity [20]: 100%
residual activity [21]: 81.2%
residual activity [22]: 87.7%
residual activity [23]: 78.2%
residual activity [24]: 94.6%
residual activity [26]: 51.8%
residual activity [27]: 96.4%
residual activity [28]: 89.8%
residual activity [29]: 58.8%
residual activity [30]: 97.8%
residual activity [31]: 100%
residual activity [32]: 95.8%
residual activity [33]: 81.9%
residual activity [34]: 82.4%
residual activity [42]: 94.2%
residual activity [35]: 78.6%
residual activity [36]: 98.3%
residual activity [37]: 77.8%
residual activity [38]: 102%
residual activity [39]: 77.3%
residual activity [40]: 44.1%
residual activity [41]: 36.1%

O=C1c2ccccc2-c2nc3nnnn3nc21
residual activity [1]: 105%
residual activity [2]: 85.1%
residual activity [3]: 76.9%
residual activity [4]: 72%
residual activity [5]: 80.6%
residual activity [6]: 85.2%
residual activity [7]: 96.2%
residual activity [8]: 37%
residual activity [9]: 100%
residual activity [10]: 86.1%
residual activity [11]: 22.2%
residual activity [12]: 89.1%
residual activity [13]: 58%
residual activity [14]: 88.7%
residual activity [15]: 86.7%
residual activity [16]: 77.6%
residual activity [17]: 85.7%
residual activity [18]: 83%
residual activity [19]: 89.9%
residual activity [20]: 95.6%
residual activity [21]: 93.1%
residual activity [22]: 69.8%
residual activity [23]: 88.1%
residual activity [24]: 46.3%
residual activity [25]: 98.2%
residual activity [26]: 76.6%
residual activity [27]: 97.1%
residual activity [28]: 108%
residual activity [29]: 11.3%
residual activity [30]: 28.5%
residual activity [31]: 59.3%
residual activity [32]: 91.7%
residual activity [34]: 52.1%
residual activity [42]: 72.2%
residual activity [35]: 62.3%
residual activity [36]: 109%
residual activity [37]: 89.4%
residual activity [38]: 101%
residual activity [39]: 107%
residual activity [40]: 87.8%
residual activity [41]: 88.7%

Reference: the kinase profiling compilation of Christmann-Franck et al. (2016)
